From ChEMBL document CHEMBL1150027, “Apigenin-7-O--D-glucopyranoside, an anti-HIV principle from Kummerowia striata” (Bioorg Med Chem Lett, 1994)
≈ marks a conversion by molar mass, not a printed value.

Experiments:
H9 [1] = assay: Inhibitory activity against HIV-1 IIIB replication in H9 cell line; assay type: functional, cell-based; conditions: Homo sapiens
H9 [2] = assay: Inhibitory activity against H9 cells uninfected with HIV-1; assay type: functional, cell-based; conditions: Homo sapiens
[3] = Ratio of IC50 to EC50 was expressed as therapeutic index; conditions: read-out: TI

EC50 (H9 [1])	SMILES	IC50 (H9 [2])	selectivity ratio [3]
80 µg/mL (≈ 178 µM)	O=c1c(O[C@@H]2O[C@H](CO)[C@@H](O)[C@H](O)[C@H]2O)c(-c2ccc(O)cc2)oc2cc(O)cc(O)c12 [ASTRAGALIN]	< 100 µg/mL	< 1.25
9 µg/mL (≈ 33.3 µM)	O=c1cc(-c2ccc(O)cc2)oc2cc(O)cc(O)c12 [APIGENIN]	35 µg/mL (≈ 130 µM)	4
1.8 µg/mL (≈ 4.16 µM)	O=c1cc(-c2ccc(O)cc2)oc2cc(O[C@@H]3O[C@H](CO)[C@@H](O)[C@H](O)[C@H]3O)cc(O)c12 [APIGETRIN]	> 100 µg/mL	> 55.6

SMILES	EC50 (H9 [1])	IC50 (H9 [2])	selectivity ratio [3]
O=c1c(O)c(-c2ccc(O)c(O)c2)oc2cc(O)cc(O)c12 [QUERCETIN]	1.6 µg/mL (≈ 5.29 µM)	< 4 µg/mL	< 2.5
